How the values were obtained:
[1] = molecular target: T1, anti-kynurenine antibody (monoclonal Mouse IgG1a k chain, clone 3D4-F2); test: competitive magnetic bead immunoassay, displacement of fluorescent conjugate […] in PBS; type: binding
T1 construct: biotinylated whole antibody on streptavidin magnetic beads

[2] = molecular target: T1, anti-kynurenine antibody (monoclonal Mouse IgG1a k chain, clone 3D4-F2); test: magnetic bead immunoassay, fluorescence of unbound conjugate in supernatant; type: binding

| IC50 [1] | Kd [2] | SMILES |
| --- | --- | --- |
| 4 µM | – | Nc1ccccc1C(=O)C[C@H](N)C(=O)O [L-kynurenine] |
| – | 5.9 µM | CCN(CC)c1ccc2c(-c3ccccc3C(=O)OCc3cn(CCOCCOCCOCCNC(=O)[C@@H](N)CC(=O)c4ccccc4N)nn3)c3ccc(N(CC)CC)cc3[o+]c2c1 [compound 5, L-Kyn-4EG-RhB] |
